Here are results for one compound from ChEMBL document CHEMBL1121995, “Crystal structure and anti herpes simplex virus activity of 2,2'-anhydro-1-beta-D-arabinofuranosylthymine” (1982).

The inhibition is how much of the control response was suppressed.

Holding throughout (assay type): functional
The test system of experiment [1] is Vero. As to the kind of experiment: Percentage inhibition against Vero cells at a concentration of 200 uM. The following applies: Chlorocebus sabaeus.
For experiment [2], the system named is Vero. As to the kind of experiment: Dose of compound required to reduced HSV-1 induced cytopathogenicity in vero cells. The conditions noted are these: Chlorocebus sabaeus, read-out: ED50 (the source's name).
Experiment [3] relates to Vero. As to the kind of experiment: Percentage inhibition against Vero cells at a concentration of 600 uM. The conditions noted are these: Chlorocebus sabaeus.

Compound `Cc1cn(C2O[C@H](CO)[C@@H](O)[C@@H]2O)c(=O)n(C)c1=O` (stereo partly drawn) yielded an inhibition at 200 µM with Vero [1] of 40%. Also, in the experiment with Vero [2], the EC50 worked out at 140 nM. Moreover, in the experiment with Vero [3], the inhibition at 600 µM came to 59%.
